Data reported in patent US12594276B2, “Inhibitors of human immunodeficiency virus replication” (ViiV Healthcare UK (No.5) Limited, priority 2024, dated 2026).
Like-named read-outs stand apart in the source and are kept apart here.

Columns and labels:
[1] = Compound cytotoxicity, XTT-based colorimetric assay; format: cell-based; settings: human
Procedure, shortened: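 Uninfected MT2 cells, antiviral-assay protocol without virus; XTT colorimetric readout day 4; CC50 reported.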

[2] = system: recombinant NL4-3 virus (nef section replaced with Renilla luciferase gene) in MT-2 cells; experiment: HIV cell culture assay (antiviral activity, luciferase readout); format: cell-based; settings: Renilla, NL43, MT-2 cells infected for 4-5 days with recombinant NL4-3 Renilla luciferase virus
Procedure, shortened: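 Compound activity was measured as reduction of luciferase in MT-2 cells infected for 4-5 days with serially diluted compound present. EC50 values were calculated with the median effect equation.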

[3] = uninfected MT2 cells, day 4, XTT, read-out: CC50

Compound | CC50 at 4 days [1, 3] | EC50 [2] | CC50 at 4 days [1]
CS(=O)(=O)Nc1nn(CCN[C@@H]2CCCOC2)c2c(-n3c([C@H](Cc4cc(F)cc(F)c4)NC(=O)Cn4nc(C(F)F)c5c4C(F)(F)[C@@H]4C[C@H]54)nc4nc(C5CCC(F)(F)CC5)ccc4c3=O)ccc(Cl)c12 (atropisomer, axis not shown; (P)) [Example 40, N-[(1S)-1-[(3P)-3-[4-chloro-3-methanesulfonamido-1-(2-{[(3R)-oxan-3-yl]amino}ethyl)-1H-indazol-7-yl]-7-(4,4-difluorocyclohexyl)-4-oxo-3H,4H-pyrido[2,3-d]pyrimidin-2-yl]-2-(3,5-difluorophenyl)ethyl]-2-[(2S,4R)-9-(difluoromethyl)-5,5-difluoro-7,8-diazatricyclo[4.3.0.0^2,^4]nona-1(6),8-dien-7-yl]acetamide] | > 50 nM | 0.028 nM | 
CS(=O)(=O)Nc1nn(CCN2CCC(F)(F)C2)c2c(-n3c([C@H](Cc4cc(F)cc(F)c4)NC(=O)Cn4nc(C(F)F)c5c4C(F)(F)[C@@H]4C[C@H]54)nc4nc(C5CCC(F)(F)CC5)cc(C(F)F)c4c3=O)ccc(Cl)c12 (atropisomer, axis not shown; (P)) [Example 154, N-[(1S)-1-[(3P)-3-{4-chloro-1-[2-(3,3-difluoropyrrolidin-1-yl)ethyl]-3-methanesulfonamido-1H-indazol-7-yl}-7-(4,4-difluorocyclohexyl)-5-(difluoromethyl)-4-oxo-3H,4H-pyrido[2,3-d]pyrimidin-2-yl]-2-(3,5-difluorophenyl)ethyl]-2-[(2S,4R)-9-(difluoromethyl)-5,5-difluoro-7,8-diazatricyclo[4.3.0.0^2,^4]nona-1(6),8-dien-7-yl]acetamide] | > 50 nM | 0.019 nM | 
CS(=O)(=O)Nc1nn(CCN2[C@@H]3CC[C@H]2COC3)c2c(-n3c([C@H](Cc4cc(F)cc(F)c4)NC(=O)Cn4nc(C5CC5)c5c4C[C@@H]4C[C@H]54)nc4nc(C5CCC(F)(F)CC5)cc(C(F)F)c4c3=O)ccc(Cl)c12 (atropisomer, axis not shown; (P)) [Example 289, N-[(1S)-1-[(3P)-3-(4-chloro-3-methanesulfonamido-1-{2-[(1R,5S)-3-oxa-8-azabicyclo[3.2.1]octan-8-yl]ethyl}-1H-indazol-7-yl)-7-(4,4-difluorocyclohexyl)-5-(difluoromethyl)-4-oxo-3H,4H-pyrido[2,3-d]pyrimidin-2-yl]-2-(3,5-difluorophenyl)ethyl]-2-[(2S,4S)-9-cyclopropyl-7,8-diazatricyclo[4.3.0.0^2,^4]nona-1(6),8-dien-7-yl]acetamide] |  | 0.025 nM | > 50 nM
Cc1cc(C2(F)CCC(F)(F)CC2)nc2nc([C@H](Cc3cc(F)cc(F)c3)NC(=O)Cn3nc(C(F)F)c4c3C(F)(F)[C@@H]3C[C@H]43)n(-c3ccc(Cl)c4c(NS(C)(=O)=O)nn([C@H](C)C(=O)N5C[C@@H](C)O[C@@H](C)C5)c34)c(=O)c12 (atropisomer, axis not shown; (P)) [Example 743, N-[(1S)-1-[(3P)-3-{4-chloro-1-[(2R)-1-[(2R,6S)-2,6-dimethylmorpholin-4-yl]-1-oxopropan-2-yl]-3-methanesulfonamido-1H-indazol-7-yl}-5-methyl-4-oxo-7-(1,4,4-trifluorocyclohexyl)-3H,4H-pyrido[2,3-d]pyrimidin-2-yl]-2-(3,5-difluorophenyl)ethyl]-2-[(2S,4R)-9-(difluoromethyl)-5,5-difluoro-7,8-diazatricyclo[4.3.0.0^2,^4]nona-1(6),8-dien-7-yl]acetamide] | > 20 nM | 0.016 nM | 
C[C@H](Cn1nc(NS(C)(=O)=O)c2c(Cl)ccc(-n3c([C@H](Cc4cc(F)cc(F)c4)NC(=O)Cn4nc(C(F)F)c5c4C(F)(F)[C@@H]4C[C@H]54)nc4nc(C5CCC(F)(F)CC5)cc(C5CC5)c4c3=O)c21)N1C[C@H](F)C[C@H](F)C1 (atropisomer, axis not shown; (P)) [Example 684, N-[(1S)-1-[(3P)-3-{4-chloro-1-[(2R)-2-[(3R,5S)-3,5-difluoropiperidin-1-yl]propyl]-3-methanesulfonamido-1H-indazol-7-yl}-5-cyclopropyl-7-(4,4-difluorocyclohexyl)-4-oxo-3H,4H-pyrido[2,3-d]pyrimidin-2-yl]-2-(3,5-difluorophenyl)ethyl]-2-[(2S,4R)-9-(difluoromethyl)-5,5-difluoro-7,8-diazatricyclo[4.3.0.0^2,^4]nona-1(6),8-dien-7-yl]acetamide] | > 20 nM | 0.014 nM | 
Cc1cc(C2CCC(F)(F)CC2)nc2nc([C@H](Cc3cc(F)cc(F)c3)NC(=O)Cn3nc(C(F)(F)F)c4c3C(F)(F)[C@@H]3C[C@H]43)n(-c3ccc(Cl)c4c(NS(C)(=O)=O)nn(CCN5CCOCC5)c34)c(=O)c12 (atropisomer, axis not shown; (P)) [Example 116, N-[(1S)-1-[(3P)-3-{4-chloro-3-methanesulfonamido-1-[2-(morpholin-4-yl)ethyl]-1H-indazol-7-yl}-7-(4,4-difluorocyclohexyl)-5-methyl-4-oxo-3H,4H-pyrido[2,3-d]pyrimidin-2-yl]-2-(3,5-difluorophenyl)ethyl]-2-[(2S,4R)-5,5-difluoro-9-(trifluoromethyl)-7,8-diazatricyclo[4.3.0.0^2,^4]nona-1(6),8-dien-7-yl]acetamide] | > 50 nM | 0.012 nM | 
COCCCn1nc(NS(C)(=O)=O)c2c(Cl)ccc(-n3c([C@H](Cc4cc(F)cc(F)c4)NC(=O)Cn4nc(C(F)F)c5c4C(F)(F)[C@@H]4C[C@H]54)nc4nc(C5CCC(F)(F)CC5)cc(C5CC5)c4c3=O)c21 (atropisomer, axis not shown; (P)) [Example 375, N-[(1S)-1-[(3P)-3-[4-chloro-3-methanesulfonamido-1-(3-methoxypropyl)-1H-indazol-7-yl]-5-cyclopropyl-7-(4,4-difluorocyclohexyl)-4-oxo-3H,4H-pyrido[2,3-d]pyrimidin-2-yl]-2-(3,5-difluorophenyl)ethyl]-2-[(2S,4R)-9-(difluoromethyl)-5,5-difluoro-7,8-diazatricyclo[4.3.0.0^2,^4]nona-1(6),8-dien-7-yl]acetamide] | > 20 nM | 0.014 nM | 
Cc1cc(C2(F)CCC(F)(F)CC2)nc2nc([C@H](Cc3cc(F)cc(F)c3)NC(=O)Cn3nc(C(F)(F)F)c4c3C[C@@H]3C[C@H]43)n(-c3ccc(Cl)c4c(NS(C)(=O)=O)nn(CCN5C[C@H](F)C[C@H](F)C5)c34)c(=O)c12 (atropisomer, axis not shown; (P)) [Example 572, N-[(1S)-1-[(3P)-3-(4-chloro-1-{2-[(3R,5S)-3,5-difluoropiperidin-1-yl]ethyl}-3-methanesulfonamido-1H-indazol-7-yl)-5-methyl-4-oxo-7-(1,4,4-trifluorocyclohexyl)-3H,4H-pyrido[2,3-d]pyrimidin-2-yl]-2-(3,5-difluorophenyl)ethyl]-2-[(2S,4S)-9-(trifluoromethyl)-7,8-diazatricyclo[4.3.0.0^2,^4]nona-1(6),8-dien-7-yl]acetamide] | > 20 nM | 0.015 nM | 
Cc1cc(C2(F)CCC(F)(F)CC2)nc2nc([C@H](Cc3cc(F)cc(F)c3)NC(=O)Cn3nc(C(F)F)c4c3C(F)(F)[C@@H]3C[C@H]43)n(-c3ccc(Cl)c4c(NS(C)(=O)=O)nn([C@@H](C)CN5C[C@H](F)C[C@H](F)C5)c34)c(=O)c12 (atropisomer, axis not shown; (P)) [Example 753, N-[(1S)-1-[(3P)-3-{4-chloro-1-[(2S)-1-[(3R,5S)-3,5-difluoropiperidin-1-yl]propan-2-yl]-3-methanesulfonamido-1H-indazol-7-yl}-5-methyl-4-oxo-7-(1,4,4-trifluorocyclohexyl)-3H,4H-pyrido[2,3-d]pyrimidin-2-yl]-2-(3,5-difluorophenyl)ethyl]-2-[(2S,4R)-9-(difluoromethyl)-5,5-difluoro-7,8-diazatricyclo[4.3.0.0^2,^4]nona-1(6),8-dien-7-yl]acetamide] | > 20 nM | 0.026 nM | 
CS(=O)(=O)Nc1nn(CCN2CC(F)(F)C2)c2c(-n3c([C@H](Cc4cc(F)cc(F)c4)NC(=O)Cn4nc(C(F)F)c5c4C(F)(F)[C@@H]4C[C@H]54)nc4nc(C5CCC(F)(F)CC5)cc(C(F)F)c4c3=O)ccc(Cl)c12 (atropisomer, axis not shown; (P)) [Example 307, N-[(1S)-1-[(3P)-3-{4-chloro-1-[2-(3,3-difluoroazetidin-1-yl)ethyl]-3-methanesulfonamido-1H-indazol-7-yl}-7-(4,4-difluorocyclohexyl)-5-(difluoromethyl)-4-oxo-3H,4H-pyrido[2,3-d]pyrimidin-2-yl]-2-(3,5-difluorophenyl)ethyl]-2-[(2S,4R)-9-(difluoromethyl)-5,5-difluoro-7,8-diazatricyclo[4.3.0.0^2,^4]nona-1(6),8-dien-7-yl]acetamide] | > 50 nM | 0.023 nM | 
Cc1cc(C2(F)CCC(F)(F)CC2)nc2nc([C@H](Cc3cc(F)cc(F)c3)NC(=O)Cn3nc(C4CC4)c4c3C[C@@H]3C[C@H]43)n(-c3ccc(Cl)c4c(NS(C)(=O)=O)nn([C@H](C)C(=O)N5C[C@@H](C)O[C@@H](C)C5)c34)c(=O)c12 (relative stereo) [Example 744, N-[(1S)-1-[(3P)-3-{4-chloro-1-[(2R)-1-[(2R,6S)-2,6-dimethylmorpholin-4-yl]-1-oxopropan-2-yl]-3-methanesulfonamido-1H-indazol-7-yl}-5-methyl-4-oxo-7-(1,4,4-trifluorocyclohexyl)-3H,4H-pyrido[2,3-d]pyrimidin-2-yl]-2-(3,5-difluorophenyl)ethyl]-2-[(2R*,4R*)-9-cyclopropyl-7,8-diazatricyclo[4.3.0.0^2,^4]nona-1(6),8-dien-7-yl]acetamide] | > 20 nM | 0.017 nM | 
